Source: ChEMBL document CHEMBL1132216, “Studies on the monoamine oxidase-B-catalyzed biotransformation of 4-azaaryl-1-methyl-1,2,3,6-tetrahydropyridine derivatives” (J Med Chem, 1999)

Experiment: Ratio of Kcat versus Km was determined

Structure (SMILES)	Ratio
CN1CC=C(c2cccn2C)CC1	1800
CN1CC=C(c2ccc[nH]2)CC1	46
